Test results as given in ChEMBL document CHEMBL4138222, “Cytotoxicity, molecular modeling, cell cycle arrest, and apoptotic induction induced by novel tetrahydro-[1,2,4]triazolo[3,4-a]isoquinoline chalcones” (Eur J Med Chem, 2018).
In brackets after ≈: the same amount, converted by molar mass. Activity calls are given as the source filed them. The calls are words filed in the database; no cut-off is given here.

What was measured:
[1] = system: HCT-116; assay: Cytotoxicity against human HCT116 cells assessed as inhibition of cell proliferation after 48 hrs by MTT assay; type: functional, cell-based; conditions: HCT-116, 48 h
[2] = Cytotoxicity against human HFB4 cells assessed as inhibition of cell proliferation after 48 hrs by MTT assay; type: cell-based
[3] = system: A549; assay: Cytotoxicity against human A549 cells assessed as inhibition of cell proliferation after 48 hrs by MTT assay; type: functional, cell-based; conditions: A549, 48 h
[4] = system: HepG2; assay: Cytotoxicity against human HepG2 cells assessed as inhibition of cell proliferation after 48 hrs by MTT assay; type: functional, cell-based; conditions: HepG2, 48 h
[5] = system: MCF7; assay: Cytotoxicity against human MCF7 cells assessed as inhibition of cell proliferation after 48 hrs by MTT assay; type: functional, cell-based; conditions: MCF7, 48 h
[6] = system: MCF7; assay: Downregulation of MMP1 mRNA expression in human MCF7 cells at IC50 after 48 hrs by RT-PCR method; type: functional, cell-based
[7] = system: MCF7; assay: Induction of apoptosis in human MCF7 cells assessed as induction of caspase-3 activity by measuring caspase-3 levels at 27.15 ug/ml after 24 hrs ELISA (reference value: 0.0197 ng/ml); type: functional
[8] = system: MCF7; assay: Upregulation of p53 mRNA expression in human MCF7 cells at IC50 after 48 hrs by RT-PCR method; type: functional, cell-based
[9] = system: MCF7; assay: Cell cycle arrest in human MCF7 cells assessed as accumulation at G0/G1 phase at 27.15 ug/ml after 48 hrs by propidium iodide staining-based flow cytometric method (reference value: 71.13%); type: functional
[10] = system: MCF7; assay: Downregulation of CDK4 mRNA expression in human MCF7 cells at IC50 after 48 hrs by RT-PCR method; type: functional, cell-based
[11] = system: MCF7; assay: Cell cycle arrest in human MCF7 cells assessed as accumulation at S phase at 27.15 ug/ml after 48 hrs by propidium iodide staining-based flow cytometric method (reference value: 23.5%); type: functional
[12] = system: MCF7; assay: Downregulation of BCL-2 mRNA expression in human MCF7 cells at IC50 after 48 hrs by RT-PCR method; type: functional, cell-based
[13] = system: MCF7; assay: Induction of apoptosis in human MCF7 cells assessed as cell aggregates at 27.15 ug/ml after 48 hrs by propidium iodide staining-based flow cytometric method (reference value: 4.49%); type: functional
[14] = system: MCF7; assay: Upregulation of Bax mRNA expression in human MCF7 cells at IC50 after 48 hrs by RT-PCR method; type: functional, cell-based
[15] = system: MCF7; assay: Induction of apoptosis in human MCF7 cells at 27.15 ug/ml after 48 hrs by propidium iodide staining-based flow cytometric method (reference value: 0.55%); type: functional
[16] = system: MCF7; assay: Upregulation of caspase-3 mRNA expression in human MCF7 cells at IC50 after 48 hrs by RT-PCR method; type: functional, cell-based
[17] = system: MCF7; assay: Cell cycle arrest in human MCF7 cells assessed as accumulation at G2/M phase at 27.15 ug/ml after 48 hrs by propidium iodide staining-based flow cytometric method (reference value: 4.82%); type: functional
[18] = system: MCF7; assay: Induction of apoptosis in human MCF7 cells assessed as cell debris at 27.15 ug/ml after 48 hrs by propidium iodide staining-based flow cytometric method (reference value: 2.75%); type: functional
[19] = system: MCF7; assay: Induction of apoptosis in human MCF7 cells at 50.05 ug/ml after 48 hrs by propidium iodide staining-based flow cytometric method (reference value: 0.55%); type: functional
[20] = system: MCF7; assay: Induction of apoptosis in human MCF7 cells assessed as cell debris at 50.05 ug/ml after 48 hrs by propidium iodide staining-based flow cytometric method (reference value: 2.75%); type: functional
[21] = system: MCF7; assay: Induction of apoptosis in human MCF7 cells assessed as cell aggregates at 50.05 ug/ml after 48 hrs by propidium iodide staining-based flow cytometric method (reference value: 4.49%); type: functional
[22] = system: MCF7; assay: Cell cycle arrest in human MCF7 cells assessed as accumulation at G0/G1 phase at 50.05 ug/ml after 48 hrs by propidium iodide staining-based flow cytometric method (reference value: 71.13%); type: functional
[23] = system: MCF7; assay: Cell cycle arrest in human MCF7 cells assessed as accumulation at S phase at 50.05 ug/ml after 48 hrs by propidium iodide staining-based flow cytometric method (reference value: 23.5%); type: functional
[24] = system: MCF7; assay: Induction of apoptosis in human MCF7 cells assessed as induction of caspase-3 activity by measuring caspase-3 levels at 50.05 ug/ml after 24 hrs ELISA (reference value: 0.0197 ng/ml); type: functional
[25] = system: MCF7; assay: Cell cycle arrest in human MCF7 cells assessed as accumulation at G2/M phase at 50.05 ug/ml after 48 hrs by propidium iodide staining-based flow cytometric method (reference value: 4.82%); type: functional

Structure (SMILES): COc1ccc(/C=C/C(=O)C2=NN(c3ccccc3)C3c4cc(OC)c(OC)cc4CCN23)cc1 (stereo not drawn)
- IC50 [1]: 243 µg/mL (≈ 518 µM)
- IC50 [2]: 115 µg/mL (≈ 245 µM)
- IC50 [3]: 190 µg/mL (≈ 404 µM)
- IC50 [4]: 218 µg/mL (≈ 464 µM)
- IC50 [5]: 68.5 µg/mL (≈ 146 µM)

Structure (SMILES): O=c1[nH]cc(F)c(=O)[nH]1 [FLUOROURACIL]
- IC50 [1]: 201 µg/mL (≈ 1550 µM)
- IC50 [3]: 66 µg/mL (≈ 507 µM)
- IC50 [4]: 237 µg/mL (≈ 1820 µM)
- IC50 [5]: 178 µg/mL (≈ 1370 µM)

Structure (SMILES): COc1cc2c(cc1OC)C1N(CC2)C(C(=O)/C=C/c2cc(OC)c(OC)c(OC)c2)=NN1c1ccccc1 (stereo not drawn)
- Activity [6]: Active
- Activity [7]: 0.4108 ng/mL
- Activity [8]: Active
- Activity [9]: 66.11%
- Activity [10]: Active
- Activity [11]: 16.01%
- Activity [12]: Active
- Activity [13]: 7.92%
- IC50 [3]: 156 µg/mL (≈ 295 µM)
- Activity [14]: Active
- IC50 [4]: 107 µg/mL (≈ 202 µM)
- IC50 [5]: 27.1 µg/mL (≈ 51.3 µM)
- Activity [15]: 17.28%
- Activity [16]: Active
- Activity [17]: 0.6%
- Activity [18]: 5.71%

Structure (SMILES): COc1cc2c(cc1OC)C1N(CC2)C(C(=O)/C=C/c2ccc(Cl)cc2)=NN1c1ccccc1 (stereo not drawn)
- IC50 [1]: 622 µg/mL (≈ 1310 µM)
- IC50 [2]: 57.2 µg/mL (≈ 121 µM)
- IC50 [3]: 156 µg/mL (≈ 329 µM)
- IC50 [4]: 141 µg/mL (≈ 297 µM)
- IC50 [5]: 151 µg/mL (≈ 319 µM)

Structure (SMILES): COc1cc2c(cc1OC)C1N(CC2)C(C(=O)/C=C/c2ccccc2)=NN1c1ccccc1 (stereo not drawn)
- IC50 [1]: 625 µg/mL (≈ 1420 µM)
- IC50 [2]: 52.1 µg/mL (≈ 119 µM)
- IC50 [3]: 78.1 µg/mL (≈ 178 µM)
- IC50 [4]: 139 µg/mL (≈ 317 µM)
- IC50 [5]: 61.4 µg/mL (≈ 140 µM)

Structure (SMILES): COc1cc2c(cc1OC)C1N(CC2)C(C(=O)/C=C/c2ccc([N+](=O)[O-])cc2)=NN1c1ccccc1 (stereo not drawn)
- IC50 [1]: 114 µg/mL (≈ 236 µM)
- Activity [6]: Active
- Activity [19]: 8.72%
- IC50 [2]: 245 µg/mL (≈ 506 µM)
- Activity [8]: Active
- Activity [10]: Active
- Activity [20]: 3.88%
- Activity [21]: 4.85%
- Activity [22]: 74.52%
- Activity [12]: Active
- IC50 [3]: 207 µg/mL (≈ 427 µM)
- Activity [14]: Active
- Activity [23]: 17.06%
- Activity [24]: 0.3573 ng/mL
- IC50 [4]: 478 µg/mL (≈ 986 µM)
- Activity [25]: 0%
- IC50 [5]: 50 µg/mL (≈ 103 µM)
- Activity [16]: Active

Structure (SMILES): COc1cc2c(cc1OC)C1N(CC2)C(C(=O)/C=C/c2ccc3c(c2)OCO3)=NN1c1ccccc1 (stereo not drawn)
- IC50 [1]: 187 µg/mL (≈ 388 µM)
- IC50 [2]: 51.9 µg/mL (≈ 107 µM)
- IC50 [3]: 201 µg/mL (≈ 417 µM)
- IC50 [4]: 122 µg/mL (≈ 253 µM)
- IC50 [5]: 225 µg/mL (≈ 466 µM)
